For assay [1], the system named is PC-3. Briefly: Cytotoxicity against human PC-3 cells assessed as reduction in cell viability incubated for 72 hrs by methylene blue survival assay. In kind it is functional, cell-based. The following applies: PC-3, 72 h.
In assay [2] the test system is LNCaP C4-2. The assay is described as follows: Cytotoxicity against human LNCaP C4-2 cells assessed as reduction in cell viability incubated for 72 hrs by methylene blue survival assay. In kind it is functional, cell-based. The note with it: LNCaP C4-2, 72 h.
Assay [3] has as its system PC-3. Briefly: Cytotoxicity against human PC-3 cells assessed as inhibition of cell survival at 2.5 uM incubated for 72 hrs by methylene blue survival assay. In kind it is functional.
Assay [4] relates to LNCaP C4-2. The assay is described as follows: Cytotoxicity against human LNCaP C4-2 cells assessed as inhibition of cell survival at 2.5 uM incubated for 72 hrs by methylene blue survival assay. In kind it is functional.
Assay [5] deals with Baculoviral IAP repeat-containing protein 5 (Homo sapiens) (UniProt O15392). The assay is described as follows: Inhibition of survivin-GAL4-DBD dimerization (unknown origin) expressed in human LNCaP C4-2 cells incubated for 24 hrs by SEAP reporter based mammalian two hybrid assay. It is filed as cell-based.
The subject of assay [6] is LNCaP C4-2. Briefly: Cytotoxicity against human LNCaP C4-2 cells with survivin overexpression assessed as reduction in cell viability incubated for 72 hrs by methylene blue survival assay. In kind it is functional, cell-based. The note with it: LNCaP C4-2, 72 h.
The test system of assay [7] is LNCaP C4-2. Briefly: Cytotoxicity against human LNCaP C4-2 cells with empty vector-transfection assessed as reduction in cell viability incubated for 72 hrs by methylene blue survival assay. In kind it is functional, cell-based. The following applies: LNCaP C4-2, 72 h.
Assay [8] deals with Baculoviral IAP repeat-containing protein 5 (Homo sapiens) (UniProt O15392). Briefly: Inhibition of survivin dimerization in human LNCaP C4-2 cells assessed as survivin degradation at 1 uM incubated for 24 hrs by Western blot analysis. It is filed as cell-based. In general terms: Immunoblotting shows a protein as a band on a membrane.
Assay [9] shares this target. Briefly: Inhibition of survivin dimerization in human PC-3 cells assessed as survivin degradation at 1 uM incubated for 24 hrs by Western blot analysis. In kind it is cell-based.
The target is the same in assay [10]. Briefly: Inhibition of survivin dimerization in human LNCaP C4-2 cells assessed as survivin degradation at 500 nM incubated for 24 hrs by Western blot analysis. In kind it is cell-based.
Assay [11] shares this target. Briefly: Inhibition of survivin dimerization in human PC-3 cells assessed as survivin degradation at 500 nM incubated for 24 hrs by Western blot analysis. It is filed as cell-based.
The subject of assay [12] is PC-3. Briefly: Induction of apoptosis in human PC-3 cells at 200 nM incubated for 24 hrs by annexin V-FITC and propidium iodide staining based flow cytometry. It is filed as functional. A general note: Flow cytometry measures light scatter and fluorescence of single cells or particles in a stream.
For assay [13], the system named is LNCaP C4-2. The assay is described as follows: Induction of apoptosis in human LNCaP C4-2 cells at 200 nM incubated for 24 hrs by annexin V-FITC and propidium iodide staining based flow cytometry. It is filed as functional.
Assay [14] has as its system PC-3. The assay is described as follows: Induction of apoptosis in human PC-3 cells assessed as increase in cleaved caspase-3 level at 200 nM incubated for 24 hrs by Western blot analysis. In kind it is functional, cell-based.
In assay [15] the test system is LNCaP C4-2. The assay is described as follows: Induction of apoptosis in human LNCaP C4-2 cells assessed as increase in cleaved caspase-3 level at 200 nM incubated for 24 hrs by Western blot analysis. In kind it is functional, cell-based.
For assay [16], the system named is LNCaP C4-2. The assay is described as follows: Synergistic potentiation of docetaxel-induced cytotoxicity against human LNCaP C4-2 cells assessed as combination index for reduction in cell viability at docetaxel/7F1 ratios ((1:1, 3:1, and 1:3 using their cytotoxic IC50) incubated for 72 hrs by methylene blue survival assay. It is filed as functional.
Assay [17] relates to PC-3. Briefly: Synergistic potentiation of docetaxel-induced cytotoxicity against human PC-3 cells assessed as combination index for reduction in cell viability at docetaxel/7F1 ratios ((1:1, 3:1, and 1:3 using their cytotoxic IC50) incubated for 72 hrs by methylene blue survival assay. In kind it is functional.

Each structure is given as a SMILES string. Active and inactive are the calls of the source. The calls are words filed in the database; no cut-off is given here.

Chain of Baculoviral IAP repeat-containing protein 5 (Homo sapiens) (O15392 whole entry, the tested form may be a part): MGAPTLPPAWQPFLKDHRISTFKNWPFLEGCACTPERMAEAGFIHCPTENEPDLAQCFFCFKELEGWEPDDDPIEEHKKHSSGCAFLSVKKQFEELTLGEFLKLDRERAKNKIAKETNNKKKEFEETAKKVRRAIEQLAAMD

As usually defined, the IC50 is the concentration at which inhibition is half-maximal. A word on the inhibition: it is the relative decrease from the control value, in per cent. For the molecule `O=C1c2ccccc2-c2nc3nonc3nc21`, the 50% inhibitory concentration (IC50) in assay [1] was determined as 160 nM; in assay [2] it was 170 nM; in [6], 950 nM; in assay [7], 200 nM. Also, the inhibition at 2.5 µM in [3] is > 80%; in [4], 80%. For the same molecule, the inhibition entry in [5], in assay [8], in [9], in assay [10] and in assay [11] was “Active” throughout. Also, the Activity in assay [12] and in assay [13] was 20% each time. Further, the outcome in [14] and in assay [15] was Active. In addition, the CI in [16] and in assay [17] was 0.025 each time.
Consider `Nc1nonc1C(=O)N/N=C1\c2ccccc2-c2nc3nonc3nc21`, for which the results for the half-maximal inhibitory concentration (IC50) in assay [1] and in [2] were 2990 nM and 2470 nM, respectively. For the same molecule, the inhibition at 2.5 µM in [3] and in assay [4] was 50% throughout. In addition, the inhibition entry in assay [5], in assay [8] and in assay [9] was “Active” in each case.

The values above are taken from ChEMBL document CHEMBL5143694, “A novel survivin dimerization inhibitor without a labile hydrazone linker induces spontaneous apoptosis and synergizes with docetaxel in prostate cancer cells” (Bioorg Med Chem, 2022).
